Results as given in PMC10924921, “Mi-2β promotes immune evasion in melanoma by activating EZH2 methylation” (Nature Communications, 2024).

What was measured:
Experiment in all cases: biochemical
Set-up in all cases: KINOMEscan active-site competition binding panel (468 kinase assays), per cent of control at 1000 nM
Details in all cases: KINOMEscan per cent of control (binding competition); read-out: Percent Control
AMPK-alpha1 = target: T1, AMPK-alpha1 (Homo sapiens, UniProt Q13131)
T1 construct: gene PRKAA1
T1 sequence (Q13131 whole entry): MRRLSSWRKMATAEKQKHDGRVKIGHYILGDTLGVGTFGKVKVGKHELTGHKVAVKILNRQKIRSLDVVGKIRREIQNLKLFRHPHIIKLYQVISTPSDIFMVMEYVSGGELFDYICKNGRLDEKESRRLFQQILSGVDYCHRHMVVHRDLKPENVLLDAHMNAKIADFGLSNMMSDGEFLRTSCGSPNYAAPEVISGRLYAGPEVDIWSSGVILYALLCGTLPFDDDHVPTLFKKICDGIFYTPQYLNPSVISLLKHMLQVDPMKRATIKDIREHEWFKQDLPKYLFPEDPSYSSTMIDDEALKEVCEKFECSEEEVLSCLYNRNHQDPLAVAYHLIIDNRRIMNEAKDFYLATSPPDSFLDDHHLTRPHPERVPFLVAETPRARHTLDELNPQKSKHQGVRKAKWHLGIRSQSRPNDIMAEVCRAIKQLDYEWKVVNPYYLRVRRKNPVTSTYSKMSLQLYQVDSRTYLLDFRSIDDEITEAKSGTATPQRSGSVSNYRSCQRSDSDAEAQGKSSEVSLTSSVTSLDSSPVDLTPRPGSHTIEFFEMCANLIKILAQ
Source text: (§1) Figure S7 / Percent Control

CAMK2B = CAMK2B (Homo sapiens, UniProt Q13554)
Sequence of CAMK2B (Q13554 whole entry): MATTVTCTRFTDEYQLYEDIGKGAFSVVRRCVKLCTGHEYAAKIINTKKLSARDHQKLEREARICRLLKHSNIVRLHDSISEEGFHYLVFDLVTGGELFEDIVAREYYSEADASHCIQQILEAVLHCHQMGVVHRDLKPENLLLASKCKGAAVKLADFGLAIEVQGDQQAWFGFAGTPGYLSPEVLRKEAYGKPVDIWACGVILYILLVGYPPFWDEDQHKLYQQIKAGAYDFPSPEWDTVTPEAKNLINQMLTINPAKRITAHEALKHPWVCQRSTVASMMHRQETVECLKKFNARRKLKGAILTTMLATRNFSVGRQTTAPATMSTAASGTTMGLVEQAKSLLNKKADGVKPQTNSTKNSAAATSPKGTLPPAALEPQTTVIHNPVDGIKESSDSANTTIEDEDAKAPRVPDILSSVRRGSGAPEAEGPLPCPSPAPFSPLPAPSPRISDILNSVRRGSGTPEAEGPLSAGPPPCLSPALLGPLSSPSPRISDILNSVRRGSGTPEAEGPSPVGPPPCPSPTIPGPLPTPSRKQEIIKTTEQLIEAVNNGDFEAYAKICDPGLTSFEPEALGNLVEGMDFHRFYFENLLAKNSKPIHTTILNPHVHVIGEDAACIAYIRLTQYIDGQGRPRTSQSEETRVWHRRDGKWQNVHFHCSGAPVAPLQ
Source text: as §1

CAMKK2 = CAMKK2 (Homo sapiens, UniProt Q96RR4)
Source text: as §1

DMPK = DMPK (Homo sapiens, UniProt Q09013)
Sequence of DMPK (Q09013 whole entry): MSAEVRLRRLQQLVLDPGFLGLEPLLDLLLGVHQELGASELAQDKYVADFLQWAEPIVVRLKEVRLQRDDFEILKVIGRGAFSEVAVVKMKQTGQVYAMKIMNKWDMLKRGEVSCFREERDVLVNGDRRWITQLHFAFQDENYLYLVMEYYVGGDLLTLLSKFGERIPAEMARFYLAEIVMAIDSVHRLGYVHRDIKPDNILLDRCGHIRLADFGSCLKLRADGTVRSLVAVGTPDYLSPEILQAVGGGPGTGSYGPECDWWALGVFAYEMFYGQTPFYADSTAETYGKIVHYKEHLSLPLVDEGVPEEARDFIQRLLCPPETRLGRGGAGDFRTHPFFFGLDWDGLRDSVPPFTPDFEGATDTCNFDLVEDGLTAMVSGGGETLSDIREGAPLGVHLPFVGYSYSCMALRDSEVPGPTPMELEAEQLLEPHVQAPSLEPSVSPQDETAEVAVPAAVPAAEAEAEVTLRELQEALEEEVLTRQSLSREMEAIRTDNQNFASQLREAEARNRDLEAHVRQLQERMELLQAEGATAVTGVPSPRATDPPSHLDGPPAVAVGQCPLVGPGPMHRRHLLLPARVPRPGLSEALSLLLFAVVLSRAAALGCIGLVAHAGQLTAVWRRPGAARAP
Source text: as §1

EPHB3 = EPHB3 (Homo sapiens, UniProt P54753)
Source text: as §1

[1] = target: T2, JAK1(JH2domain-pseudokinase) (Homo sapiens, UniProt P23458)
T2 construct: JH2domain-pseudokinase
Source text: as §1

KIT(V559D,V654A) = KIT(V559D,V654A) (Homo sapiens, UniProt P10721, V559D/V654A)
Source text: as §1

LATS1 = LATS1 (Homo sapiens, UniProt O95835)
Source text: as §1

LKB1 = target: T3, LKB1 (Homo sapiens, UniProt Q15831)
T3 construct: gene STK11
T3 sequence (Q15831 whole entry): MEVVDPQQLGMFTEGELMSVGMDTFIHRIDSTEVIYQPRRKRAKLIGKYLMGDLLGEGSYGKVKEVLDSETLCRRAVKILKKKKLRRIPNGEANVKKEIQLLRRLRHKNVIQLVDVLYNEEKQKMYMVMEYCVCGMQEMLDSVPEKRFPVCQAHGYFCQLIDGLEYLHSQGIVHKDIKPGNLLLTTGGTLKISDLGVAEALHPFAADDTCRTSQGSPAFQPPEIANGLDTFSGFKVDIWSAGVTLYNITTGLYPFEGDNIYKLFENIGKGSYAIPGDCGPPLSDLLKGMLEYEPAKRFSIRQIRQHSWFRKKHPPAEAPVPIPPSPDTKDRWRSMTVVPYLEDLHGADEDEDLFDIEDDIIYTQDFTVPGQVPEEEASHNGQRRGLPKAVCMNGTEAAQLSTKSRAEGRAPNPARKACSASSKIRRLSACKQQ
Source text: as §1

MAK = MAK (Homo sapiens, UniProt P20794)
Source text: as §1

MAP3K1 = MAP3K1 (Homo sapiens, UniProt Q13233)
Source text: as §1

MAPKAPK2 = MAPKAPK2 (Homo sapiens, UniProt P49137)
Source text: as §1

NEK9 = NEK9 (Homo sapiens, UniProt Q8TD19)
Source text: as §1

PAK7 = target: T4, PAK7 (Homo sapiens, UniProt Q9P286)
T4 construct: gene PAK5
Source text: as §1

PKAC-beta = target: T5, PKAC-beta (Homo sapiens, UniProt P22694)
T5 construct: gene PRKACB
Source text: as §1

PKN1 = PKN1 (Homo sapiens, UniProt Q16512)
Source text: as §1

PRKG1 = PRKG1 (Homo sapiens, UniProt Q13976)
Sequence of PRKG1 (Q13976 whole entry): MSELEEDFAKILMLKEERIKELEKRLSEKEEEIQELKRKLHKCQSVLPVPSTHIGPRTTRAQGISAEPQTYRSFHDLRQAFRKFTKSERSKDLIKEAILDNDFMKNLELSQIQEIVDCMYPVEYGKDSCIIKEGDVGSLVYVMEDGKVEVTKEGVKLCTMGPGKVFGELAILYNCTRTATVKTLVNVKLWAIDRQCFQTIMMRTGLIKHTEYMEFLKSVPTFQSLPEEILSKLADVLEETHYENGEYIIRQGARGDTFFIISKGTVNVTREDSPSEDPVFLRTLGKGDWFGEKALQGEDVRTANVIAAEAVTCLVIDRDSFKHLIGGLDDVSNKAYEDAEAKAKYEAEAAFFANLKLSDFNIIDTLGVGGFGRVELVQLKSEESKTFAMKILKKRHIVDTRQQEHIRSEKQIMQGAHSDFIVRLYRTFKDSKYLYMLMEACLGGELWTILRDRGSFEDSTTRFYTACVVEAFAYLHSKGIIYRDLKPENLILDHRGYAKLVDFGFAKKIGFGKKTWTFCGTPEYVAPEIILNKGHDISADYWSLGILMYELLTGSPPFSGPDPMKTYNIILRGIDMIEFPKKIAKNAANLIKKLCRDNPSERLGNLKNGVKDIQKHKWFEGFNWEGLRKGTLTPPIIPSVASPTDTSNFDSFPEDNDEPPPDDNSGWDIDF
Source text: as §1

RIOK1 = RIOK1 (Homo sapiens, UniProt Q9BRS2)
Sequence of RIOK1 (Q9BRS2 whole entry): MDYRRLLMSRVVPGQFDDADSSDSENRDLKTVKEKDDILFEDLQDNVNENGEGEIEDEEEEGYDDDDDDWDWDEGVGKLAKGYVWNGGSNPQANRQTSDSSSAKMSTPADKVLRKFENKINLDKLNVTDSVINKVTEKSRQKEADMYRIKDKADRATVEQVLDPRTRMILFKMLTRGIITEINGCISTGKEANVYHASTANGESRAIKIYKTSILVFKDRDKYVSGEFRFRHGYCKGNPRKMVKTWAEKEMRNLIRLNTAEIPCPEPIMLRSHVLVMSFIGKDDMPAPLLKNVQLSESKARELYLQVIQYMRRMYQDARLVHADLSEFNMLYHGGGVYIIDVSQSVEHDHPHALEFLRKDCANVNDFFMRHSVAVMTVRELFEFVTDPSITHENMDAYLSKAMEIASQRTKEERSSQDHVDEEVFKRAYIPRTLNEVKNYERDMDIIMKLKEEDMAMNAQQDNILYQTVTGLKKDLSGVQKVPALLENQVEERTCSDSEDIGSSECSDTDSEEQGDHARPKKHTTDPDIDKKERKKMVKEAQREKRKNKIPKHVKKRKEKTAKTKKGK
Source text: as §1

[2] = target: T6, RSK4(Kin.Dom.1-N-terminal) (Homo sapiens, UniProt Q9UK32)
T6 construct: gene RPS6KA6; Kin.Dom.1-N-terminal
T6 sequence (Q9UK32 whole entry): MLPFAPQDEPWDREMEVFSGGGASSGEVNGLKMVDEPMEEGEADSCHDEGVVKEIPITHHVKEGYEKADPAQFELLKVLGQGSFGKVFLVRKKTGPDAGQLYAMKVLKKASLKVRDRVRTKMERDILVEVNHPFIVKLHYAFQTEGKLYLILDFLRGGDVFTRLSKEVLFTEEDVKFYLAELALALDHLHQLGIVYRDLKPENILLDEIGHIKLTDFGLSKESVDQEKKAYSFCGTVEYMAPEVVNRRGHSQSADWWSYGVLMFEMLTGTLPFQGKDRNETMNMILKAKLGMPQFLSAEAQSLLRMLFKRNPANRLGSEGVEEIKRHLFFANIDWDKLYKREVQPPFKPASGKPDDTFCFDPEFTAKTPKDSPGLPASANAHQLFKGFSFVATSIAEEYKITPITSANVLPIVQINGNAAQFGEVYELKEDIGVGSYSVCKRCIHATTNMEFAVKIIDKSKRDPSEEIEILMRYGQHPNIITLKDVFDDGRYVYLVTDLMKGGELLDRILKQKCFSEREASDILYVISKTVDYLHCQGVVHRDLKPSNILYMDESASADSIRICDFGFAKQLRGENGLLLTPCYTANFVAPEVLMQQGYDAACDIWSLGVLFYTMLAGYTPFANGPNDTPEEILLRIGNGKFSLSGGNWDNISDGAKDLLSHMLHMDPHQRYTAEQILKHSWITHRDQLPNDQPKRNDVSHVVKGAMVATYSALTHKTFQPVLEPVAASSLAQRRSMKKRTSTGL
Source text: as §1

SRC = SRC (Homo sapiens, UniProt P12931)
Source text: as §1

SRMS = SRMS (Homo sapiens, UniProt Q9H3Y6)
Sequence of SRMS (Q9H3Y6 whole entry): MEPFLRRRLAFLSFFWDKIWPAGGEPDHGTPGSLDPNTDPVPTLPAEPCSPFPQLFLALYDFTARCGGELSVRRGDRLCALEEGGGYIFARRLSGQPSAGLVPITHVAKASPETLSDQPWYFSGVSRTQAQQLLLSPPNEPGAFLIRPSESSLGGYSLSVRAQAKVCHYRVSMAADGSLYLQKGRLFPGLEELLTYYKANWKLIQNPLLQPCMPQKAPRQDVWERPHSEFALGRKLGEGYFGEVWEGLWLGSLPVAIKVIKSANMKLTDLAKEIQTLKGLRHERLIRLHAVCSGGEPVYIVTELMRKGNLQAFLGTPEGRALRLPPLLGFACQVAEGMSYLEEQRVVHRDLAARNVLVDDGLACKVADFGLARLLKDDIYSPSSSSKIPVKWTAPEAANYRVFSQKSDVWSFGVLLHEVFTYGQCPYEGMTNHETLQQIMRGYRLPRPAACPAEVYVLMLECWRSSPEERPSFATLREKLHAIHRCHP
Source text: as §1

TAOK1 = TAOK1 (Homo sapiens, UniProt Q7L7X3)
Source text: as §1

TLK2 = TLK2 (Homo sapiens, UniProt Q86UE8)
Source text: as §1

[3] = target: T7, TYK2(JH2domain-pseudokinase) (Homo sapiens, UniProt P29597)
T7 construct: JH2domain-pseudokinase
Source text: as §1

Cn1c(=O)[nH]c2ccc(-c3cccc(C(=O)NC4CCn5ccnc5C4)c3)cc21 (stereo not drawn) [Z36-MP5]
remaining binding at 1 µM (AMPK-alpha1): 92%
remaining binding at 1 µM (CAMK2B): 91%
remaining binding at 1 µM (CAMKK2): 51%
remaining binding at 1 µM (DMPK): 99%
remaining binding at 1 µM (EPHB3): 78%
remaining binding at 1 µM [1]: 51%
remaining binding at 1 µM (KIT(V559D,V654A)): 76%
remaining binding at 1 µM (LATS1): 100%
remaining binding at 1 µM (LKB1): 97%
remaining binding at 1 µM (MAK): 88%
remaining binding at 1 µM (MAP3K1): 54%
remaining binding at 1 µM (MAPKAPK2): 55%
remaining binding at 1 µM (NEK9): 83%
remaining binding at 1 µM (PAK7): 92%
remaining binding at 1 µM (PKAC-beta): 96%
remaining binding at 1 µM (PKN1): 99%
remaining binding at 1 µM (PRKG1): 64%
remaining binding at 1 µM (RIOK1): 47%
remaining binding at 1 µM [2]: 36%
remaining binding at 1 µM (SRC): 97%
remaining binding at 1 µM (SRMS): 89%
remaining binding at 1 µM (TAOK1): 100%
remaining binding at 1 µM (TLK2): 53%
remaining binding at 1 µM [3]: 79%
